In US20220193241A1, “AGENT TARGETING DOUBLE-MEMBRANE ORGANELLE DNA” (CHIBA-PREFECTURE, priority 2019, published 2022):

How the values were obtained:
Type in all cases: cell-based
[1] = system: A549 cells; experiment: ROS production with MitoSOX Red; settings: 10 μM, 24 hours
Protocol: (§1) In order to confirm the production induction of reactive oxygen species (ROS) by mitophagy, the production of reactive oxygen species was fluorescently observed with MitoSOX Red (Invitrogen). 10^4 A549 or PC14 cells were inoculated, cultured for 10 hours, then treated with 10 μM CCC021-TPP for 24 hours, then washed with PBS, and treated at 37° C. for 10 minutes with MitoSOX Red dissolved in 13 μL of DMSO and diluted into 5 μM (final concentration) with PBS. The cells were washed with PBS and then observed under SP8 confocal microscope.

[2] = system: PC14 cells; experiment: ROS production with MitoSOX Red; settings: 10 μM, 24 hours
Protocol: as §1

[3] = system: A549 cells; experiment: Autophagy by anti-LC3 / cytochrome C immunofluorescent staining; settings: 20 μM, 4-day treatment
From the text: A possible cause of cellular senescence was the induction of mitochondrion-specific autophagy (mitophagy) of mutant mitochondria by the administration of CCC021-TPP. It is considered that the excessive production of reactive oxygen species in association therewith was involved in the induction of cellular senescence.

[4] = system: A549 cells; experiment: MTT cell proliferation assay
Protocol: (§2) The A549 cells and the PC14 cells were inoculated at 5×10^3 cells/dish and 1×10^4 cells/dish, respectively, to 35 mm glass base dishes (IWAKI, Japan), cultured for 24 hours, and then treated with CCC021-TPP (final concentration: 20 μM). Further, 24 hours later, the culture solution was discarded, and a DMEM culture solution containing Mito Tracker(R) Red CMXRos (Life Technologies, USA) was added to attain 100 nM. 30 minutes later, the cells were washed twice with PBS, then fixed in 4% PFA for 30 minutes, then medium-replaced with PBS, preserved at 4° C., immunostained with the antibody by the method described in Example 1, and observed under confocal laser microscope SP8 (Leica, Germany). […] A549 and PC14 were each inoculated at 5×10^2 cells/well to 16 wells of a 96-well plate, cultured for 24 hours, and then treated with CCC021-TPP at 0, 1, 2, 5, 10, 25, and 50 μM each for 2 wells. 5 days later, the cells were reacted at room temperature for 2 hours using CytoSelect™ MTT Cell Proliferation Assay (Cosmo Bio Co., Ltd.), followed by the measurement of absorbance at 590 nm with SPECTRAFLUOR Plus (Tecan Group Ltd.) to conduct a rechallenge experiment of cell proliferation. […] 7 days later, as for change in the live cell numbers of the A549 cells and the PC14 cells, the live cell numbers were measured by trypan blue staining to experimentally examine cell survival rates.

[5] = system: PC14 cells; experiment: MTT cell proliferation assay; settings: PC14, 5 days
Protocol: as §2

[6] = system: A549 cells; experiment: GFP-LC3 transfection and Mito Tracker Red fluorescence observation; settings: 20 μM, 4 days
Protocol: 5×10^4 cells were inoculated and cultured for 24 hours. Then, 500 μL of OptiMEM, 10 μg of vector DNA (7.5 μL of P3000 reagent), and 20 μL of Lipofectamine(R) 3000 (Thermo Fisher Scientific) were added to the cells, which were then left at room temperature for 5 minutes for transfection and cultured for 24 hours. Then, 1000 subcultured cells were inoculated, cultured with 20 μM CCC021-TPP for 4 days, and then confirmed by fluorescence observation with Mito Tracker Red.

[7] = system: A549 cells; experiment: SA-β-Gal staining (senescence marker β-galactosidase); settings: 20 μM, 5 days
Protocol: In order to study whether cellular senescence was induced, the activity of a senescence marker β-galactosidase was determined with SPiDER-β-Gal (DOINDO) in the A549 cells and the PC14 cells after CCC021-TPP administration. 1000 cells were inoculated to a 35 mm dish and then cultured for 24 hours. Then, CCC021-TPP was administered (final concentration: 20 μM), and the cells were cultured for 5 days, washed twice with Hanks' balanced salt solution (HBSS) (pH 7.3), then treated with 500 μL of 4% paraformaldehyde at room temperature for 3 minutes, then washed twice with HBSS again, then treated with 500 μl of SPiDER-β-Gal Working Solution at 37° C. for 30 minutes, then washed once with HBSS, and observed under SP8 confocal microscope.

[8] = system: A549 cells; experiment: Synthetic lethality: cell morphology with CCC021-TPP and ABT-199 or A1155463; settings: 4 days
Protocol: It was confirmed with the BCL2- and BCL-XL-specific inhibitor that the suppression of cell death in the cellular senescence of the A549 cells was presumably due to the BCL pathway. The type of BCL pathway inhibition, combined use of which could induce cell death (apoptosis) in the senescent cells of the A549 cells was studied. Five hundred A549 cells were inoculated to a 96-well plate and cultured for 24 hours. Then, change in cell morphology was photographed under an optical microscope either without administration (i.e., after DMSO treatment) or 4 days after treatment with 20 μM CCC021-TPP and 10 μM BCL2 inhibitor ABT-199 (compound venetoclax of No. 33 in FIG. 55-10) or 10 μM BCL-XL inhibitor A1155463 (compound of No. 16 in FIG. 55-6) each alone, or treatment by combined use of the same concentration of CCC021-TPP with the same concentration of ABT-199 or A1155463.

[9] = system: A549 cells; experiment: Synthetic lethality: cell morphology with CCC021-TPP and ABT-263; settings: days 2 and 4
From the text: Since the suppression of cell death in the cellular senescence of the A549 cells was presumably due to the BCL pathway, it was believed that the apoptosis of cells whose cellular senescence was evoked by CCC021-TPP could be induced by combined use with ABT-263 (Cayman Chemical Company) serving as a senolytic drug and a BCL pathway inhibitor. Thus, the possibility of inducing the cell death of senescent cells by CCC021-TPP treatment and combined use with the BCL2/BCL-XL inhibitor ABT-263 was observed under an optical microscope to observe change in cell morphology. Five hundred A549 cells were inoculated to a 96-well plate, cultured for 24 hours, and then observed over time under an optical microscope either without administration or after administration of 20 μM CCC021-TPP and 10 μM ABT-263 each used alone or used concurrently, and cell morphology was photographed on days 2 and 4.

Q: With `CN(C)CCCNC(=O)CCNC(=O)c1cc(NC(=O)c2cc(NC(=O)CCNC(=O)c3nc(NC(=O)c4cc(NC(=O)c5cc(NC(=O)CCNC(=O)CCCC[P+](c6ccccc6)(c6ccccc6)c6ccccc6)cn5C)cn4C)cn3C)cn2C)cn1C` [CCC021-TPP] as the compound, how does the ROS production [1] read?
A: excessive induction of ROS production in cytoplasm was observed

Q: And the ROS production [2]?
A: rarely observed

Q: What about the “mitophagy (colocalization of LC3 and cytochrome C)” value [3] of the same compound?
A: mitophagy was induced

Q: And the “cell morphology after administration” value ([4]; A549)?
A: senescent morphology

Q: What about the IC50 ([4]; Homo sapiens, 120 h, A549, 5 days) of the same compound?
A: 7.97 µM

Q: What about the “IC50 (MTT assay)” value [5] of the same compound?
A: incalculable

Q: And the “localization of GFP-LC3 on mitochondria” value [6]?
A: colocalized with red fluorescence from Mito Tracker Red

Q: What about the “activity of senescence marker β-galactosidase” value [7] of the same compound?
A: elevated activity of β-galactosidase was confirmed

Q: And the “cell death (morphology)” value ([8]; 20 μM CCC021-TPP and 10 μM A1155463 used concurrently)?
A: markedly increased numbers of cells that underwent apoptosis

Q: What about the “cell death (morphology)” value ([8]; single administration: 20 μM CCC021-TPP, 10 μM ABT-199, 10 μM A1155463) of the same compound?
A: Any finding indicating cell death was not obtained

Q: And the “cells that underwent apoptosis (morphology)” value ([9]; combined use of 20 μM CCC021-TPP and 10 μM ABT-263)?
A: cells that evidently underwent apoptosis were already found

Q: What about the “cells that underwent apoptosis (morphology)” value ([9]; each used alone: 20 μM CCC021-TPP, 10 μM ABT-263) of the same compound?
A: not detected
